Measured values from patent publication US4492651A, “Cyclic hexapeptides” (American Home Products Corporation, priority 1983, dated 1985).
Square brackets hold non-standard residues; d marks the D form.

Test system: growth hormone release
Experiment: suppression of growth hormone release in arginine stimulated rats (plasma GH by radioimmunoassay)
Type: in vivo
Conditions: Nembutal-anaesthetised albino male rats, blood 15 min after peptide
Experimental: The potent inhibition of growth hormone secretion was established for the compounds of this invention by subjecting the representative product of Example 5 to the following standard procedure involving suppression of growth hormone release in arginine stimulated rats:
Albino male rats are administered Nembutal intraperitoneally at a dose of 50 milligrams per kilogram. Fifteen minutes later a subcutaneous injection of the product of Example 5 is administered. Ten minutes later 0.5 milliliters of arginine (300 milligrams per milliliter, pH 7.2) is injected into the heart. Five minutes after receipt of the arginine the rats are decapitated and blood is collected into Trasylol-EDTA. An appropriate aliquot is assayed for growth hormone (GH) by radioimmuno-assay. The results of the test procedure were compared with those obtained in the same manner with Compound 8 of Table 2 disclosed by Veber et al., loc. cit., as follows: […]

Substance: cyclo(PF[dW]KTF) [Compound 8]
- Plasma GH Levels (dose of peptide 0.1 μg/kg subcutaneous): 278 ± 89 ng/mL
- Plasma GH Levels (dose of peptide 1.0 μg/kg subcutaneous): 169 ± 19 ng/mL
- Plasma GH Levels (dose of peptide 10.0 μg/kg subcutaneous): 126 ± 6 ng/mL
